Measurements published in patent US11542316B2, “S-Arrestin peptides and therapeutic uses thereof” (APITOPE INTERNATIONAL NV, priority 2017, dated 2023).
Ends that are not written are not given here.

How the values were obtained:
[1] = tested on: T cell line with MGAR APC; test: Antigen Processing Independent Presentation System (APIPS) assay, fresh or fixed MGAR APC; format: cell-based, DR2 mice; conditions: DR2 T cell line, IFN-γ, 24 h
Description: FIG. 4: Identification of apitopes within HIP-9FL. DR2 mice were immunized with HIP-9FL-KKK and a T cell line was established. Ten days after immunization the LN and spleens were harvested and cultured with different concentrations of peptide (0.1-1-2.5 and 5 μg/ml); 2×10^6 cells/ml APCs+1×10^6 cells/ml CD4 T cells per well. At day 7 the cells were re-stimulated with the same concentrations of peptide. On day 21 an APIPS test was done using commercial APC (MGAR). After 24 h, antigen-induced T cell activation was measured by IFN-γ ELISA and shown as OD values. The graph represents the mean of duplicate measurements±SEM. LN, lymph nodes; APC, Antigen presenting cell; APIPS, Antigen Processing Independent Presentation System.
Antigen-specific clones or TCL were tested for their reactivity to the peptides, presented by fixed or not fixed (fresh) cells (VAVY or MGAR) (=APCs). 5×10^4 cells from the individual clones were cultured with 10 μg/ml peptide and 5×10^4 fixed or fresh APCs. In the case of TCL, 5×10^4 cells were cultured with 10 μg/ml and 25 μg/ml peptide and 2.5×10^4 fixed or fresh APCs. To fixate APCs, cells were incubated with 0.5% paraformaldehyde (Merck, Darmstadt, Germany) (pH7) for 5 min at room temperature (RT). The fixation reaction was stopped by adding 0.4M glycine (Sigma-Aldrich) and washing the cells in RPMI-10% FCS. Additionally, reactivity towards human SAg protein (QBiologicals, Eurofins Amatsigroup, Ghent, Belgium) was measured to identify cryptic epitopes. After 24 h or 48 h, antigen-induced IFN-γ or IL-2 production (respectively) was measured by ELISA (R&D Systems, Abingdon, UK).
DR3tg or DR2tg mice were immunised subcutaneously in the base of the tail with 50 μg peptide emulsified in CFA (peptide/CFA). Ten days after immunisation, draining lymph nodes (LN) and spleens were harvested. […] At day 7, TCL cells were counted and cultured with fresh APC, peptides and IL-2, all at the same concentrations as above. […]

[2] = tested on: SAg-specific hybridoma cells / T cell line with VAVY APC; test: Antigen Processing Independent Presentation System (APIPS) assay, fresh or fixed VAVY APC; format: cell-based, DR3 mice; conditions: DR3 hybridoma clone (IL-2, 48 h) or T cell line (IFN-γ, 24 h)
Description: (§1) FIG. 2: identification of apitopes within HIP-115. (A) DR3 mice were immunized with SAg and hybridomas were generated. 5×10^4 SAg-specific hybridoma cells were cultured with 5×10^4 fresh or fixed commercial APC (VAVY) cells. T cell proliferation was measured by IL-2 ELISA on supernatants collected after 48 h. The graph represents the mean of duplicate measurements±SEM. (B) DR3 mice were immunized with HIP-115 and a T cell line was established. Ten days after immunization the LN and spleens were harvested and cultured with different concentrations of peptide (0.1-1-2.5 and 5 μg/ml); 2×10^6 cells/ml APC+1×10^6 cells/ml CD4 T cells per well. At day 7 the cells were re-stimulated with the same concentrations of peptide. On day 14 an APIPS test was done using commercial APC (VAVY). After 24 h, antigen-induced T cell activation was measured by IFN-γ ELISA and shown as IFN-γ concentration (pg/ml). The graph represents the mean of duplicate measurements±SEM. LN, lymph nodes; APC, Antigen presenting cell; APIPS, Antigen Processing Independent Presentation System.
as §1, with “3:” for “2:”, “HIP-241125.” for “HIP-115.”, “HIP-241125+HIP-24DG” for “HIP-115”
(§2) FIG. 5: Identification of apitopes within HIP-17GN. DR3 mice were immunized with HIP-17GN and a T cell line was established. Ten days after immunization the LN and spleens were harvested and cultured with different concentrations of peptide (0.1-1-2.5 and 5 μg/ml); 2×10^6 cells/ml APC+1×10^6 cells/ml CD4 T cells per well. At day 7 the cells were re-stimulated with the same concentrations of peptide. On day 14 an APIPS test was done using commercial APC (VAVY). After 24 h, antigen-induced T cell activation was measured by IFN-γ ELISA and shown as OD values. The graph represents the mean of triplicate measurements±SEM. LN, lymph nodes; APC, Antigen presenting cell; APIPS, Antigen Processing Independent Presentation System.
as §2, with “6:” for “5:”, “HIP-12AK.” for “HIP-17GN.”, “HIP-12AK” for “HIP-17GN”, “IFN-γ concentration (pg/ml).” for “OD values.”, “duplicate” for “triplicate”
Antigen-specific clones or TCL were tested for their reactivity to the peptides, presented by fixed or not fixed (fresh) cells (VAVY or MGAR) (=APCs). 5×10^4 cells from the individual clones were cultured with 10 μg/ml peptide and 5×10^4 fixed or fresh APCs. […]

[3] = tested on: LN cells and splenocytes upon SAg or peptide restimulation; test: Ex vivo tolerization experiment, DR2tg mice; format: in vivo; conditions: DR2 mice, IFN-γ
Description: FIG. 7: Ex vivo tolerisation protocol. Mice are injected subcutaneously in the flank with 0.1 μg/ml, 1 μg/ml and 10 μg/ml peptide on days −15, −13 and −11, followed by 3 injections of 100 μg/ml on days −8, −6 and −4 (escalating dose regime). On day 0, mice are immunized subcutaneously at the base of the tail with SAg/CFA or peptide/CFA. Mice are sacrificed 10 days after immunization to measure proliferation of LN cells and splenocytes upon SAg or peptide restimulation. LN, lymph nodes.
FIG. 11: Ex vivo tolerance induction by HIP-9K1-KKK apitope. DR2 mice are injected subcutaneously in the flank with 0.1 μg/ml, 1 μg/ml and 10 μg/ml HIP-9K1-KKK on days −15, −13 and −11, followed by 3 injections of 100 μg/ml on days −8, −6 and −4 (escalating dose regime). On day 0, mice are immunized subcutaneously at the base of the tail with HIP-9FL/CFA. Mice are sacrificed 10 days after immunization to measure proliferation of LN cells and splenocytes upon SAg or peptide restimulation. Data represent mean±SEM of the concentration values for the PBS-treated mice (black lines) and peptide-treated mice (color lines). IFN-γ production expressed as IFN-γ concentration (pg/ml). Two-way ANOVA was used to measure overall treatment effects on T cell activation and p-values are written in the graphs. Bonferonni post-hoc testing was used and significant differences are indicated in the graphs (* p<0.05; **** p<0.0001). LN, lymph nodes. (A) Tolerisation against SAg in LN. (B) Tolerisation against HIP-9FL and HIP-9K1-KKK in LN. (C) Tolerisation against SAg in spleen. (D) Tolerisation against HIP-9FL and HIP-9K1-KKK in spleen.
FIG. 13: Ex vivo tolerance induction by HIP-12G1-KKK apitope. DR2 mice are injected subcutaneously in the flank with 0.1 μg/ml, 1 μg/ml and 10 μg/ml HIP-12G1-KKK on days −15, −13 and −11, followed by 3 injections of 100 μg/ml on days −8, −6 and −4 (escalating dose regime). On day 0, mice are immunized subcutaneously at the base of the tail with HIP-12AK/CFA. Mice are sacrificed 10 days after immunization to measure proliferation of LN cells and splenocytes upon SAg or peptide restimulation. Data represent mean±SEM of the concentration values for the PBS-treated mice (black lines) and peptide-treated mice (color lines). IFN-γ production expressed as IFN-γ concentration (pg/ml). Two-way ANOVA was used to measure overall treatment effects on T cell activation and p-values are written in the graphs. Bonferonni post-hoc testing was used and significant differences are indicated in the graphs (** p<0.01; *** p<0.001: **** p<0.0001). LN, lymph nodes. (A) Tolerisation against HIP-12G1-KKK and HIP-12G1 in LN. (B) Tolerisation against HIP-12G1-KKK in spleen.
DR3tg or DR2tg mice were injected subcutaneously in the flank region with 0.1 μg, 1 μg and 10 μg of peptide on days −15, −13 and −11 respectively, followed by 3 injections of 100 μg peptide on days −8, −6 and −4 (dose escalation schedule). On day 0, the mice were immunised subcutaneously in the base of the tail with 50 μg antigen (parental peptide) emulsified in CFA (peptide/CFA). Ten days after immunisation, draining lymph nodes (LN) and spleens were harvested. LN cells and splenocytes were isolated and cultured in X-vivo 15 medium (supplemented with 2 mM L-glutamine, 50 U/mL penicillin and 50 U/mL streptomycin; Lonza) in 96-well flat bottom plates. To investigate antigen-induced cell proliferation, 0.5×10^6 cells/well were cultured (200 μl/well) for 72 hours with different antigen concentrations (0-25 μg/ml) or with 12.5 μg/ml purified protein derivative (PPD; priming control; Statens serum institut, Copenhagen, Denmark). After 72 hours, supernatant was harvested and stored at −80° C. until further analysis. IFN-γ concentrations in supernatants were assessed by cytokine ELISA (R&D Systems, Abingdon, UK) to measure cell activation.

Substance | behaves as apitope (response to peptide presented by fresh or fixed APC) [1] | behaves as apitope (response to peptide presented by fresh or fixed APC) [2] | tolerization against the peptide itself / parental peptide ([3]; LN) | tolerization against the peptide itself ([3]; spleen)
VKKIKAFVEQVANVVLYSSDY-NH2 [HIP-9FL] | behave as apitopes |  |  | 
KKKVKKIKAFVEQVANVVLYSSDYKKK-NH2 [HIP-9FL-KKK] | behave as apitopes |  |  | 
KKKGILVSYQIKVKKKK-NH2 [HIP-12G1-KKK, KKKGILVSYQIKVKKKK] |  | behave as apitopes | tolerization induced | tolerization induced
